The source of these data is patent US10201559B2, “Compositions of selenoorganic compounds and methods of use thereof” (Alltech, Inc., priority 2014, dated 2019).

One series concerns pElf2beS539. In words: Western blot, pElf2beS539 in IMR-32 cells. In kind it is cell-based, human. As to conditions: 150 ppb. The procedure:
IMR-32 and AML12 cells were seeded on 6-well plates, and then treated with vehicle and various compounds for 6 and 24 hr, as described above. After treatments, cells were rinsed with ice-cold PBS, and lysed in the ice-cold RIPA buffer containing complete proteinase and phosphotase inhibitors (Themo-Fisher Scientific, Waltham, Mass.) on ice for 30 min. Cell lysates were collected using a cell scraper and transfer pipette, and then centrifuged at 12000 g for 30 min at 4° C. to remove the DNA pellet and obtain the protein extract. Protein levels in the supernatant of these cell lysates were determined using the Pierce Micro-BCA protein assay kit (Themo Scientific-Piece Biotechnology, Rockford, Ill.) according to the manufacturer's protocol.
For Western blot analysis, five micrograms of total proteins from vehicle- and compound(s)-treated cells were subjected to SDS-PAGE gel separation, and then transferred to PVDF membranes, as described previously (Reddy, Liu et al. 2008 Science). Membranes were blocked in a phosphate-buffered saline (PBS) containing 5% (w/v) of bovine serum albumin (Sigma, St. Louis, Mo.), and incubated with specific primary antibodies followed by the incubation with HRP-conjugated anti-mouse or anti-rabbit secondary antibodies (1:5000 dilution, Cell Signaling Inc.). All primary antibodies except G6PC (Santa Cruz), Actb (Li-COR, Lincoln, Nebr.), Elf2bε and pElf2bε (Abcam, Cambridge, Mass.) were purchased from Cell Signaling Inc. Positive signals on the membrane blots were detected using the Amersham's enhanced chemiluminescence Western Blotting Prime Detection reagents (GE healthcare Lifescience, Pittsburgh, Pa.). Images of these luminescence signals on the membrane blots were captured using the LI-COR Odyssey Fc Image system (Lincoln, Nebr.). […] Protein band densities in the Western blots were determined using the Li-COR Image studio software or NIH ImageJ software, and then normalized by Actb level in each sample. […]

For another series, the system named is PSEN. The experiment in a line: Real-time RT-PCR, PSEN in IMR-32 cells. In kind it is cell-based, human. To be noted: individual compound. The procedure: Human IMR-32 cells were seeded on gelatinized 6-well (6.5×10^5 cells/well) or 24-well (1.3×10^5 cells/well) plates, while mouse liver AML-12 cells were cultured on uncoated 6-well (3.33×10^5 cells/well) or 24-well (6.7×10^4 cells/well) plates. Cells were treated with vehicle (control) or various compounds for 6, 24 or 48 hr. Total RNA from these cells was using Trizol (Invitrogen) according to the Manufacturer's protocol, and then incubated with DNase I to remove any potential contaminated genomic DNA. Then RNA samples were subjected to real-time PCR analysis using the Applied-Bioscience's RT kit and predesigned Taqman probes (Invitrogen), as described previously (Lan et al EMBO J 2003). Three to six samples were analyzed in each treatment group. Data were normalized by Actin B (Actb) or Glyceraldehyde Phosphate Dehydrogenase (Gapdh) levels in each sample, and are presented as mean±sem of 3-6 samples.
In general terms: Real-time PCR tracks product formation cycle by cycle.

Series [1] deals with IMR-32 cells. In words: Quantitative analysis of mitochondrial potential in IMR-32 cells. In kind it is cell-based, human. To be noted: for enhanced MT potential compared with sulfur analogs: 24 hr. The procedure: Similar to the above studies on AML-12 cells, the mitochondrial potential per cell in living IMR-32 cells was determined using the Bio-TeK Synergy HT Multi-Mode fluorescence microplate reader with the following modifications. To improve the attachment of IMR-32 cells to culture dishes, cell culture plates were precoated with 0.1% gelatin (Sigma, St. Louis, Mo.). 2×10^4 cells per a 96-well were seeded on gelatinized 96-well plates for the above studies. To reduce the cell dislodgment, Mitotracker orange and Hoechst 33342 fluorescent dyes (diluted in culture media) were directly added to each well after vehicle- or compound-treatments. After dye incubation, cell culture media were carefully replaced with 1× PBS for the quantitation analysis of fluorescence on the microplate reader. Eight samples per each treatment were examined for the above analysis, and the experiments were repeated at least five times. Data are presented as mean±sem of eight samples.

In a further series the test system is C2C12 cells. The experiment in a line: Quantitative analysis of mitochondrial potential in C2C12 cells. To be noted: for MT potential: 24 hr, compared to control. It counts as cell-based, mouse. The procedure:
For C2C12 cells, equal number of cells (1×10^4) were seeded on Corning 96-well clear-bottom and dark-wall cell culture plates (VWR), cultured in 10% FBS DMEM media for 24 hr., and then treated with vehicle (sterilized water), compound C and D and their sulfur analogs for 24 and 48 hrs. These vehicle- or compound-treated cells were rinsed twice with PBS, incubated with Mitotracker Orange fluorescence dye at 37° C. for 30 min, and then replaced with PBS. Mitotracker Orange fluorescence intensities (mitochondrial potential) in these living cells were determined by a Bio-TeK Synergy HT Multi-Mode Fluorescence Microplate Reader (Winooski, Vt.). Eight samples per each treatment were examined for the above analysis, and data are presented as mean±sem of eight samples.

In series [2] the test system is IMR-32 cells. The experiment in a line: Cell viability assay, IMR-32. In kind it is cell-based, human. To be noted: 24, 48 and 72 hr. The procedure: Cell viability in cultured cells was determined using Promega's CellTiter96® AQueous One Solution Cell Proliferation Assay kits, according to the Manufacturer's protocol. In brief, equal number of C2C12 (1×10^4 cells/well), AML-12 (1×10^4 cells/well) and IMR-32 (2×10^4 cells/well) were seeded on 96-well clear plates (VWR) and treated with vehicle or compounds for 24, […] and/or 72 hr. Then, cultured cells were incubated with AQueous One solution (100 ul/per well) at 37° C. for 1 hr, and the absorbance of OD490 nm in each sample was determined by the Bio-Tek microplate reader. Cell viability in culture cells were determined by the subtraction of OD490 nm in cultured cells with the OD490 nm in plain culture media (without seeding of cells). Eight samples per each treatment were examined for the above analysis. Data are presented as Mean±sem of eight samples.

In series [3] the test system is rat brain cortex mitochondria. The experiment in a line: OCR of calcium-stressed rat brain cortex mitochondria (SeaHorse). It counts as biochemical. As to conditions: calcium (10 μM) and 150 ppb compound; control 1,677, calcium alone 1,066. The procedure: The following example describes an experiment performed in the SeaHorse external flux analyzer; an instrument for measuring the respiration rate of mitochondria expressed as the oxygen consumption rate, or OCR. The experiment in question used mitochondria from the brain cortex of normal rats, maintained on normal laboratory chow which had not been fortified with any additional selenium sources.
An identical sample of the same mitochondrial preparation was treated in exactly the same manner as the control sample except that calcium (10 micromolar final concentration) was added to stress or damage the mitochondria by depolarizing them. As shown (bottom line) the OCR dropped from a value of 1,677 to 1,066 pMoles/min O2.
Again, identical samples of rat brain cortex mitochondria were incubated as above except that they contained calcium (10 μM) and 150 ppb of compounds D and E, respectively. C was not tested. It is evident that the OCR of the compound-treated, calcium-stressed mitochondria were restored to near control levels, i.e. 1,564 pMoles/min O2 in the case of compound D and 1,531 pMoles/min O2 in the case of compound E.

The mark [4] stands for this setting: continuous 48 hr single treatment.

“Also recorded” adds a separate entry of the source.

`C[Se]C[C@H]1O[C@@H](n2cnc3c(N)ncnc32)C(O)C1O` (stereo in doubt) [compound C, 5′-Methylselenoadenosine]: in the series with pElf2beS539, the pElf2beS539 protein level entry was “not affected”. For the same compound, the “PSEN mRNA expression” value in the series with PSEN (6 hr) and in the series with PSEN (24 hr) was “significantly reduced” in each case. In addition, the MT potential entry in the series with IMR-32 cells [1] (6 hr, compared to control) is “a trend towards elevated MT potential”; in the series on IMR-32 cells [1] (setting [4]), “did not affect MT potential”; in the series with C2C12 cells it was “significantly enhanced MT potential”. For the same compound, the “enhanced MT potential compared with sulfur analogs” value with IMR-32 cells [1] was “more pronounced”. For the same compound, the “cell viability (OD490 nm)” value in the series with IMR-32 cells [2] was “lack of toxic effects; also recorded: Improved neuronal cell survival”.
Turning to `Nc1ncnc2c1ncn2[C@@H]1O[C@H](C[Se]CC[C@@H](N)C(=O)O)C(O)C1O` (some centres unmarked) [compound D, 5′-Selenoadenosyl homocysteine], the pElf2beS539 protein level result in the series with pElf2beS539 is recorded as “not affected”. Further, the “OCR (oxygen consumption rate)” value in series [3] is 1,564 pMoles/min O2. Further, in the series with PSEN (24 hr), the “PSEN mRNA expression” value was “did not inhibit, but instead stimulated”. In addition, the “enhanced MT potential compared with respective sulfur analog(s)” value in the series on IMR-32 cells [1] (6 hr) is “more pronounced”. The MT potential entry in the series with IMR-32 cells [1] (6 hr, compared to control) is given as “significantly enhanced MT potential”; in the series with IMR-32 cells [1] (setting [4]), “did not affect MT potential”; in the series on IMR-32 cells [1] (repeated treatments (24 hr + 24 hr), 15 and 150 ppb), “significantly enhanced MT potential”; in the series on C2C12 cells it was “significantly enhanced MT potential”. Also, the “enhanced MT potential compared with sulfur analogs” value with IMR-32 cells [1] was “more pronounced”. Also, in the series with C2C12 cells (lower doses (37.5 and 75 ppb)), the “potency on MT potential relative to compound C” value was “more potent than compound C”. Besides, the “stimulation of mitochondrial activity over control levels” value with C2C12 cells (most effective dose) is “two-fold over control levels; also recorded: two-fold stimulation of mitochondrial activity”. The “cell viability (OD490 nm)” value with IMR-32 cells [2] was “lack of toxic effects”.
On to `C[Se]CC(NC(=O)CCC(N)C(=O)O)C(=O)O` (centres unmarked) [compound E, gamma-glutamyl-methylseleno-cysteine], for which, in the series with pElf2beS539, the pElf2beS539 protein level entry is listed as “not affected”. Besides, the “OCR (oxygen consumption rate)” value in series [3] is 1,531 pMoles/min O2. Also, the “PSEN mRNA expression” value in the series on PSEN (24 hr) was “did not inhibit, but instead stimulated”. Besides, the “enhanced MT potential compared with respective sulfur analog(s)” value in the series on IMR-32 cells [1] (6 hr) is recorded as “more pronounced”. In addition, the MT potential entry in the series on IMR-32 cells [1] (6 hr, compared to control) is recorded as “significantly enhanced MT potential”; with IMR-32 cells [1] (setting [4]), “did not affect MT potential”; in the series with IMR-32 cells [1] (repeated treatments (24 hr + 24 hr), 150 ppb), “significantly enhanced MT potential”. Also, the “enhanced MT potential compared with sulfur analogs” value with IMR-32 cells [1] was “more pronounced”. Besides, the “cell viability (OD490 nm)” value in the series with IMR-32 cells [2] is “lack of toxic effects”.
